How the values were obtained:
Type in all cases: cell-based, human
Hep3B = assay: TUNEL assay, Hep3B
Method: (§1) U343 (5×10^4), U87MG (5×10^4), C33A (5×10^5), Hep3B (4×10^5), and A549 (5×10^4) cells were plated onto a chamber slide and then infected with adenovirus at an MOT of 0.2-20. Following 24 hr and 48 hr of infection, medium was removed and TUNNEL assay was carried out according to the manufacturer's instruction of ApopTag kit (Intergen, Purchase, N.Y.). For color development, cells were incubated with peroxidase-conjugated streptavidin and then diaminobenzidine (DAKO, Carpinteria, Calif.). At the time that color of cells became brown, cells were counterstained with 0.5% methyl green for 10 min and observed under microscope in more than 4 selected fields. The ratio of stained cells to total cells was calculated.

U87MG = assay: TUNEL assay, U87MG
Method: as §1

C33A = assay: TUNEL assay, C33A
Method: as §1

A549 = assay: TUNEL assay, A549
Method: as §1

C33A cells = assay: Flow cytometry, Annexin-V and PI dual staining, C33A
Method: To examine apoptosis induced by relaxin, human tumor cell lines, U343, U87MG, C33A, Hep3B and A549, were introduced to 25 T culture flasks and 24 hr later, infected with Ad-ΔE1B or Ad-ΔE1B-RLX adenovirus at an MOT of 0.5-5. Cells were treated with 0.1-1 μM CPT-11 […] as a positive control and treated with PBS as a negative control. After 48 hr, 72 hr and 96 hr of infection, the infected cells were collected and fixed in 70% ethanol at 4° C. for 24 hr. Following the fixation, the cells were incubated with a mixture of PI (propidium iodide, […]) and RNase for 15 min and the analysis by flow cytometry was performed. In addition, to examine early apoptosis induced by relaxin, several human tumor cell lines were infected with Ad-ΔE1B or Ad-ΔE1B-RLX adenovirus as described above. The infected cells were collected and then processed for Annexin V/PI dual staining according to manufacturer's instruction in the ApoAlert V-FITC apoptosis kit (Clontech, Palo Alto, Calif.), followed by flow cytometric analysis.

U343 = assay: TUNEL assay, U343
Method: as §1

Compound: CC[C@@]1(O)C(=O)OCc2c1cc1n(c2=O)Cc2cc3ccccc3nc2-1 [CPT, camptothecin]
- Proportion of apoptotic cells (%) (Hep3B): 71.2 ± 15.73%
- Proportion of apoptotic cells (%) (U87MG): 83.0 ± 29.29%
- Proportion of apoptotic cells (%) (C33A): 60.1 ± 25.41%
- Proportion of apoptotic cells (%) (A549): 37.5 ± 5.35%
- apoptotic rate (Annexin-V+/PI−) (C33A cells): 57.10%
- Proportion of apoptotic cells (%) (U343): 53.5 ± 7.45%
